The source of these data is patent US20100022514A1, “Heterocycle Compounds and Methods of Use Thereof” (NORVARTIS AG, priority 2006, published 2010).

The target in one assay is T1, HDAC-1 (Homo sapiens, UniProt Q13547).
T1 construct: made in house
The assay can be described thus: Deacetylase fluorescence assay (HDAC-1). It is filed as biochemical. On the procedure: Conventional methods are used to express deacetylase enzymes and purify them from lysed cells. The following example describes an exemplary procedure, however equivalent procedures are within the scope of the invention.
The cell line used is a derivative of 293 cells overexpressing a fusion of the gene encoding each deacetylase protein with a nucleotide sequence encoding the Flag marker.
Cells are grown in Optimem, 2% Fetal Calf Serum, Pen/Strep. For enzyme preparation, Lysis buffer (IPLS) is 50 mM Tris-HCl, pH 7.5, 120 mM NaCl, 0.5 mM EDTA and 0.5% Nonidet P-40, to which is added one tablet of Protease inhibitors (Roche 11836170001) per 10 ml buffer. Other buffers are IPHS, which is IPLS containing 1 M NaCl; TBS (Sigma #T5912) dilute 10× stock to 1× with dH2O; HD buffer: 10 mM Tris pH 8.0 (1M Stock) 10 mM NaCl (5M Stock), 10% glycerol, and for dialysis: 400 μM PMSF is added (for 2 L: use 8 ml 100 mM Stock). Protease inhibitors (Complete mini, Boehringer Mannheim), 1 tablet/10 mL are added to all buffers but not used in buffers for enzyme assays.
Cells are harvested without using trypsin, and most cells are obtained easily in PBS, with gentle striking or agitation of flasks if necessary. More adherent cells are scraped in PBS. Cells are grown in 500 cm^2 trays, from which about half of the media is aspirated (50 ml total), then cells are scraped in the rest of the media and transferred to a centrifuge tube. Trays are washed with 25 ml cold PBS, scraped again to collect additional cells, and centrifuged at 1500 rpm at 4° C. for 5 min. Cells are washed at least 3 times in PBS to remove growth media, pelleting cells after each wash by centrifugation at 1500 rpm for 5 minutes. After washing, PBS is removed and the resulting cell pellet frozen at −80° C. for storage prior to purification.
For purification, cells are resuspended in lysis buffer, 12 ml of IPLS for cells collected from 10 500 cm trays. Cells are lysed at 4° C. for 3 hrs with rocking, and debris is removed by centrifugation for 20 min at 17,000 rpm in 30 ml centrifuge tubes. If supernatant is not clear afterward, centrifugation of the supernatant is repeated. Protein concentration of the whole cell lysate is determined (generally in the range of about 2-5 mg/ml).
For immunoprecipitation per mg of protein, 15 μL of anti-Flag M2-Agarose Affinity beads (Sigma #A2220) is used. Beads are prepared by washing 3 times with 10× bead volume of PBS and 1 time with IPLS, with centrifugation of the washes at 1500 rpm for 5 min. Whole cell lysate is incubated with the Ab-beads overnight at 4° C. Then beads are centrifuged and washed in 5× volume of the following buffers: three times in IPLS (30 sec at 4° C., spin at 1500 RPM for 5 min); three times in IPHS; and three times in TBS buffer. After each centrifugation, the supernatant is aspirated, leaving the pellet as dry as possible but avoiding sucking up any of the beads.
To elute the enzyme, beads are resuspended in 5× bead volume of TBS with protease inhibitor (Roche 11836170001) 1 tablet/10 mL. Enzyme is eluted with 400 μg/mL Flag peptide (Sigma #F-3290) for 3 hrs at 4° C. on rotator. Then beads are centrifuged, and the supernatant is transferred to a new tube to which is added 1/10 volume of glycerol. The supernatant is transferred to a dialysis cassette (Pierce #66410) using a 3 cc syringe and 18 G needle, and is dialyze sup in 2 L HD buffer for 2 hrs at 4° C. (1 L/hour). The resulting purified deacetylase is divided into aliquots (300 μL/tube), is snap frozen in dry ice bath, and is stored at −80° C.
For assay of deacetylase an assay based on Deacetylase Fluorescent Activity Assay/Drug Discovery Kit (BioMol # AK500) is used, however any equivalent deacetylase assay is within the scope of the invention.
The Fluorescent Assay Buffer (FAB) contains: 25 mM Tris-HCl, pH 8.0, 137 mM NaCl, 2.7 mM KCl and 1 mM MgCl2. […]

The subject of assay [1] is p21 promoter (p21-luc) in H1299 cells. Put plainly: p21 promoter luciferase assay using stably transfected p21-luc in H1299 cells. Conditions: Homo sapiens, NCI-H1299. It is filed as cell-based. The method, then:
The cell lines used are derived from H1299 (p21-luc). The growth media used is RPMI 1640, 10% FBS, 1% Pen/Strep and the selection media added is 500 μg/mL Geneticin (Gibco). The buffer used is 5× cell culture lysis buffer (Promega #E1531), stored at −20 C and the Luciferase assay reagent (Promega #E1483) is stored at −70° C. The results of the assay are analyzed using Wallac Software.
To assay Luciferase, the cell culture medium is removed after one day of growth and the flasks are washed once with PBS. The cells are trypsinized in 20 mL of media and the trypsin is neutralized. The cells are counted (0.5-1 mL) on a Vi-Cell XR cell viability analyzer.
Cells are then diluted to a concentration of approximately 5000 cells/200 μL, and 190 μL samples are aliquoted into each well of a Costar white 96-well TC treated white bottom plate with lid (Costar #3917). Plates are then incubated overnight at 37 C.
After a further day, a sample of the compound is added to the wells for assay.
After a further day, the cells are lysed and the luciferase activity of the lysed cells is measured. Each well is washed twice with PBS and 20 μL/well of 1× cell culture lysis buffer (dilute 5× to 1× in distilled water) is added to each well. The microtiter plates are then shaken on a microtiter plate shaker for 20 minutes at room temperate at a speed setting of 5-6. After removal from the shaker, 100 μL of Luciferase Reagent is added to each well. Each microtiter plate is then read on Wallac Envision instrument.

SMILES strings stand for the structures. pIC50: −log10 of the molar value. Read-outs that look alike come from different tables or passages of the source.

T1 sequence (Q13547 whole entry): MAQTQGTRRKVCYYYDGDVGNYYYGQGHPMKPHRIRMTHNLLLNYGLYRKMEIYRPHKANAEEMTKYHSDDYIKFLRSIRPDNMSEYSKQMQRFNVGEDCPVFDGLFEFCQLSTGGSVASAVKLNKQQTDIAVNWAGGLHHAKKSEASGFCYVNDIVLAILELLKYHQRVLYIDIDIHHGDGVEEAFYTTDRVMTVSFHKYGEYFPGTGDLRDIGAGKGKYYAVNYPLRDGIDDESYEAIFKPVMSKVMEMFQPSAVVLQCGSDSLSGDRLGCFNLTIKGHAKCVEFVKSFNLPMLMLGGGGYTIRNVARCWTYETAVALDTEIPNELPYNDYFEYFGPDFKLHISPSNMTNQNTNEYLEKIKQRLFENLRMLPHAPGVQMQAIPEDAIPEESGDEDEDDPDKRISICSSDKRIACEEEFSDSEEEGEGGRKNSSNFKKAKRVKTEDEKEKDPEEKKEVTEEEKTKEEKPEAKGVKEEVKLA

The term pIC50 denotes the negative decadic logarithm of the IC50, by convention in mol/L. A word on the AC50: it is the midpoint of the concentration-response curve, whichever way the signal moves. For the compound `O=C(/C=C/c1ccc2c(c1)CN(C(=O)C1CC1)C2)NO` [Example 23, (E)-3-(2-Cyclopropanecarbonyl-2,3-dihydro-1H-isoindol-5-yl)-N-hydroxy-acrylamide], the pIC50 at HDAC-1 (read-out: HDAC-1 IC50) was 6.00 to 7.00. The compound further yielded an AC50 in assay [1] of over 1 µM.

On to `O=C(/C=C/c1ccc2c(c1)CN(S(=O)(=O)C1CC1)C2)NO` [Example 24, (E)-3-(2-Cyclopropanesulfonyl-2,3-dihydro-1H-isoindol-5-yl)-N-hydroxy-acrylamide], for which the pIC50 on HDAC-1 (read-out: HDAC-1 IC50) was 6.00 to 7.00. In assay [1], this compound displayed an AC50 of over 1 µM.

`Cc1[nH]c2ccccc2c1CC(=O)N1Cc2ccc(/C=C/C(=O)NO)cc2C1` [Example 25, (E)-N-Hydroxy-3-{2-[2-(2-methyl-1H-indol-3-yl)-acetyl]-2,3-dihydro-1H-isoindol-5-yl}-acrylamide]: on HDAC-1 (read-out: HDAC-1 IC50), the pIC50 is over 7.00. Moreover, the AC50 in assay [1] is over 1 µM.

Consider `O=C(/C=C/c1ccc2c(c1)CN(C(=O)Cc1ccccc1)C2)NO` [Example 26, (E)-N-Hydroxy-3-(2-phenylacetyl-2,3-dihydro-1H-isoindol-5-yl)-acrylamide], for which the pIC50 on HDAC-1 (read-out: HDAC-1 IC50) was 6.00 to 7.00. This compound gave an AC50 in assay [1] of over 1 µM.

In the case of `O=C(/C=C/c1ccc2c(c1)CN(CCc1c[nH]c3ccccc13)C2)NO` [Example 27, (E)-N-Hydroxy-3-{2-[2-(1H-indol-3-yl)-ethyl]-2,3-dihydro-1H-isoindol-5-yl}-acrylamide], the pIC50 at HDAC-1 is over 7.00. In assay [1], this compound returned an AC50 of over 1 µM.

Consider `O=C(/C=C/c1ccc2c(c1)CN(CCc1cnn3ccccc13)C2)NO` [Example 28, (E)-N-Hydroxy-3-[2-(2-pyrazolo[1,5-a]pyridin-3-yl-ethyl)-2,3-dihydro-1H-isoindol-5-yl]-acrylamide], for which the pIC50 on HDAC-1 (read-out: HDAC-1 IC50) was over 7.00. In assay [1], the AC50 is over 1 µM.

`Cc1[nH]c2ccccc2c1CCN1Cc2ccc(/C=C/C(=O)NO)cc2C1` [Example 29, (E)-N-Hydroxy-3-{2-[2-(2-methyl-1H-indol-3-yl)-ethyl]-2,3-dihydro-1H-isoindol-5-yl}-acrylamide] gave a pIC50 against HDAC-1 of over 7.00. The compound also registered an AC50 in assay [1] of 0.1 to 1 µM.

As for `O=C(CCc1ccc2c(c1)CN(CCC1CCCCC1)CC2)NO` [Example 31], at HDAC-1 (read-out: HDAC-1 IC50), the pIC50 is 6.00 to 7.00. The compound also returned an AC50 in assay [1] of over 1 µM.

As to `Cc1nn(C)c(C)c1CN1CCc2cc(/C=C/C(=O)NO)ccc2C1` [Example 32, (E)-N-Hydroxy-3-[2-(1,3,5-trimethyl-1H-pyrazol-4-ylmethyl)-1,2,3,4-tetrahydro-isoquinolin-6-yl]-acrylamide], the pIC50 at HDAC-1 (read-out: HDAC-1 IC50) is under 6.00. The compound further had an AC50 in assay [1] of over 1 µM.

For `Cc1nn2ccccc2c1CCN1CCCc2cc(/C=C/C(=O)NO)ccc2C1` [Example 33, (E)-N-Hydroxy-3-{2-[2-(2-methyl-pyrazolo[1,5-a]pyridin-3-yl)-ethyl]-2,3,4,5-tetrahydro-1H-benzo[c]azepin-7-yl}-acrylamide], the pIC50 at HDAC-1 (read-out: HDAC-1 IC50) was over 7.00. The compound further came in with an AC50 in assay [1] of over 1 µM.

On to `Cc1noc(-c2ccccc2)c1CCN1Cc2ccc(/C=C/C(=O)NO)cc2C1` [Example 34, (E)-N-Hydroxy-3-{2-[2-(3-methyl-5-phenyl-isoxazol-4-yl)-ethyl]-2,3-dihydro-1H-isoindol-5-yl}-acrylamide], for which, at HDAC-1 (read-out: HDAC-1 IC50), the pIC50 was 6.00 to 7.00. Also, the AC50 in assay [1] was over 1 µM.

Take `O=C(/C=C/c1ccc2c(c1)CN(CCC1CCCCC1)C2)NO` [Example 35, (E)-3-[2-(2-Cyclohexyl-ethyl)-2,3-dihydro-1H-isoindol-5-yl]-N-hydroxy-acrylamide]: the pIC50 on HDAC-1 (read-out: HDAC-1 IC50) is 6.00 to 7.00. The same compound displayed an AC50 in assay [1] of over 1 µM.

Turning to `O=C(/C=C/c1ccc2c(c1)CN(CCc1c[nH]c3ccccc13)CC2)NO` [Example 36, (E)-N-Hydroxy-3-{2-[2-(1H-indol-3-yl)-ethyl]-1,2,3,4-tetrahydro-isoquinolin-7-yl}-acrylamide], the pIC50 at HDAC-1 (read-out: HDAC-1 IC50) is 6.00 to 7.00. This compound returned a concentration at half-maximal activity (AC50) in assay [1] of over 1 µM.

With `Cc1[nH]c2ccccc2c1CCN1CCc2ccc(CCC(=O)NO)cc2C1` [Example 37, N-Hydroxy-3-{2-[2-(2-methyl-1H-indol-3-yl)-ethyl]-1,2,3,4-tetrahydro-isoquinolin-7-yl}-propionamide], the pIC50 on HDAC-1 (read-out: HDAC-1 IC50) is under 6.00. The AC50 in assay [1] is over 1 µM.

Consider `Cc1noc(-c2ccccc2)c1CCN1CCc2ccc(/C=C/C(=O)NO)cc2C1` [Example 38, (E)-N-Hydroxy-3-{2-[2-(3-methyl-5-phenyl-isoxazol-4-yl)-ethyl]-1,2,3,4-tetrahydro-isoquinolin-7-yl}-acrylamide], for which the pIC50 on HDAC-1 (read-out: HDAC-1 IC50) was over 7.00. For the same compound, the AC50 in assay [1] is over 1 µM.

With `Cc1[nH]c2ccccc2c1CCN1CCc2ccc(/C=C/C(=O)NO)cc2C1` [Example 39, (E)-N-Hydroxy-3-{2-[2-(2-methyl-1H-indol-3-yl)-ethyl]-1,2,3,4-tetrahydro-isoquinolin-7-yl}-acrylamide], the pIC50 at HDAC-1 (read-out: HDAC-1 IC50) is over 7.00. This compound gave an AC50 in assay [1] of 0.1 to 1 µM.

For `Cc1nn2ccccc2c1CCN1CCc2ccc(/C=C/C(=O)NO)cc2C1` [Example 40, (E)-N-Hydroxy-3-{2-[2-(2-methyl-pyrazolo[1,5-a]pyridin-3-yl)-ethyl]-1,2,3,4-tetrahydro-isoquinolin-7-yl}-acrylamide], the pIC50 at HDAC-1 (read-out: HDAC-1 IC50) is over 7.00. The compound also displayed an AC50 in assay [1] of over 1 µM.

Take `Cc1[nH]c2ccccc2c1CCN1CCCc2cc(/C=C/C(=O)NO)ccc2C1` [Example 41, (E)-N-Hydroxy-3-{2-[2-(2-methyl-1H-indol-3-yl)-ethyl]-2,3,4,5-tetrahydro-1H-benzo[c]azepin-7-yl}-acrylamide]: the pIC50 on HDAC-1 (read-out: HDAC-1 IC50) is over 7.00. For the same compound, the AC50 in assay [1] is over 1 µM.

For the compound `CC(C)(C)c1[nH]c2ccccc2c1CCN1CCc2ccc(/C=C/C(=O)NO)cc2C1` [Example 42, (E)-3-{2-[2-(2-tert-Butyl-1H-indol-3-yl)-ethyl]-1,2,3,4-tetrahydro-isoquinolin-7-yl}-N-hydroxy-acrylamide], the pIC50 on HDAC-1 (read-out: HDAC-1 IC50) is over 7.00. This compound displayed an AC50 in assay [1] of 0.1 to 1 µM.

Take `CC(C)(C)c1[nH]c2ncccc2c1CCN1CCc2ccc(/C=C/C(=O)NO)cc2C1` [Example 43, (E)-3-{2-[2-(2-tert-Butyl-1H-pyrrolo[2,3-b]pyridin-3-yl)-ethyl]-1,2,3,4-tetrahydro-isoquinolin-7-yl}-N-hydroxy-acrylamide]: on HDAC-1 (read-out: HDAC-1 IC50), the pIC50 was over 7.00. This compound returned an AC50 in assay [1] of over 1 µM.

For the compound `O=C(/C=C/c1ccc2c(c1)CN(CCc1ccccc1)CC2)NO` [Example 44, (E)-N-Hydroxy-3-(2-phenethyl-1,2,3,4-tetrahydro-isoquinolin-7-yl)-acrylamide], at HDAC-1 (read-out: HDAC-1 IC50), the pIC50 was 6.00 to 7.00. This compound also registered an AC50 in assay [1] of over 1 µM.
